The structures appear in SMILES notation. “Also recorded” adds a separate entry of the source.

The nature of data set [1]: Postprandial plasma triacylglycerol concentration after test breakfasts (randomized cross-over study). Format: in vivo, human. An excerpt:
(§1) Ten healthy normal weight females between the age of 20 to 30 of took part in a randomized cross over study with three different breakfast meals. […] The baseline values for EPA and DHA proportions in erythrocytes were 1.0±0.1 and 6.7±0.6% (mean±standard error of the mean). Subjects with any form of cardiovascular disease based on self reported medical status and family history were excluded from the study. All subjects provided written informed consent. Ethics approval was obtained from the Deakin University Human Research Ethics Committee (EC2011-023).
(§2) This was a postprandial study where fasting blood was taken, followed by the consumption of a breakfast containing placebo (olive oil) or active oils (EPA or DPA) and then hourly post prandial blood samples were taken up to 5-hours.
(§3) The study breakfast consisted of 180 grams of instant mashed potato (Continental Deb™, Unilever, Australasia) mixed with 70 ml boiled water and 20 grams of oil. In each of the three meals 18 grams of lipids consisted of olive oil (La Espanola Pure Olive Oil, Seville, Spain). The DPA breakfast included 2 g of DPA (Equateq Ltd, Breasclete, Callanish, Scotland), the EPA breakfast 2 g of EPA (Equateq Ltd, Breasclete, Callanish, Scotland) and the control (olive oil) meal an additional 2 g of olive oil. EPA and DPA were included in the olive oil as free fatty acids. The subjects could use salt, pepper or chicken flavoured salt with the meal and were provided with water throughout the study period ad libitum. Subjects consumed the study meal within 15 minutes.
Venous blood was drawn at the fasting state and hourly post prandial for one to five hours. EDTA blood samples were immediately centrifuged for fifteen minutes at 591×g to isolate the plasma.
(§4) TAG concentrations in plasma and the isolated chylomicrons were measured on a Roche Cobas Integra 400 plus autoanalyser (Roche, Lavel, Quebec, Canada) by enzymatic colorimetric method using commercially available kits (TRIGL) as per the manufacturer's instructions (Roche, Lavel, Quebec, Canada).

A short description of data set [2]: Postprandial triacylglycerol concentration in chylomicron-rich fraction after test breakfasts. Format: in vivo, human.
Description: as §1, §2, §3
(§5) A chylomicron-rich fraction (Svedberg flotation unit (Sf) >400), later abbreviated to “chylomicrons”, was isolated from plasma by ultracentrifugation using a Beckman ultra centrifuge and TLA 100.4 rotor (Beckman instruments, Palo Alto, Calif., USA) as previously described (Ågren et al., 2006). Briefly 1.8 ml of EDTA plasma was overlaid with saline solution (density=1.006 kg/I) in ultracentrifuge tubes and centrifuged at 35,000×g for 30 min at 23° C. The top 1 millilitre was aspirated to remove the chylomicron-rich fraction. All samples were frozen at −80° C. prior analysis.
as §4

The nature of data set [3]: Chylomicron TAG polyunsaturated fatty acids (gas chromatography of FAME). Format: in vivo, human. The following applies: for EPA (20:5n-3) proportion in chylomicron TAGs: one to five hours postprandial, compared to the other breakfasts. On the procedure: as §2, §3, §5
An internal standard mixture of triheptadecanoin (Sigma-Aldrich, St. Louis, Mo., USA), dinonadecanoylphosphatidylcholine (Sigma-Aldrich, St. Louis, Mo., USA) and cholesterylpentadecanoate (Nu-Chek Prep. Inc., Elysian, Minn., USA) was added to the isolated chylomicrons. Then 1.5 ml methanol, 3 ml chloroform and 0.8 ml 0.88% KCl in water were added and the blend was thoroughly vortexed after each addition. The tubes were centrifuged 2000×g for 3 minutes to separate the layers, and the chloroform rich layer was removed and evaporated to dryness (Folch et al., (1957) J Biol Chem 226:497-509). TAGs and phospholipids were isolated from the extracted lipid mixture with solid phase extraction based on silica columns (Hamilton and Comai, (1988) Lipids 23:1146-1149).
Fatty acid methyl esters (FAME) were prepared with a sodium methoxide method. In short, the lipids were suspended to 1 ml dry diethylether. 25 μl methylacetate and 25 μl sodium methoxide were added and the blend was incubated for 5 minutes while shaken at times. The reaction was stopped with 6 μl acetic acid. The tubes were centrifuged 2000×g for 5 minutes, after which the supernatant was removed and gently evaporated to dryness. The resulting FAME were transferred to 100 μl inserts in hexane (Christie (1982) J Lipid Res 23:1072-1075). The FAME were analysed with gas chromatography (Shimadzu GC-2010 equipped with AOC-20i auto injector, flame ionization detector (Shimadzu corporation, Kyoto, Japan) and wall coated open tubular column DB-23 (60 m×0.25 mm i.d., liquid film 0.25 μm, Agilent technologies, J.W. Scientific, Santa Clara, Calif., USA). Splitless/split injection was used and the split was opened after 1 min. Supelco 37 Component FAME Mix (Supelco, St. Louis, Mo., USA), 68D (Nu-Check-Prep, Elysian, Minn., USA) and GLC-490 (Nu-Check-Prep, Elysian, Minn., USA) were used as external standards.

Data set [4] can be described thus: Lipidomics of PUFA containing chylomicron TAGs (LC-ESI-MS/MS). Format: in vivo, human. The following applies: 3 and 5 hour time points. The method, then:
Lipidomic analysis of the one, three and five hour chylomicron samples was performed by liquid chromatography, electrospray ionisation-tandem mass spectrometry using an Applied Biosystems 4000 QTRAP mass spectrometer running Analyst 1.5 software. Liquid chromatography was performed on a Zorbax C18, 1.8 μm, 50×2.1 mm column (Agilent technologies, Santa Clara Calif., USA). The lipids of the chylomicrons were extracted with chloroform:methanol (2:1, 20 volumes), mixed, sonicated (30 mins) and allowed to stand for 20 mins. Samples were centrifuged (16 000×g, 10 min) and the supernatant transferred to a 96 well PPE plate and dried until a stream of nitrogen at 40° C. […] Quantification of individual TAG species was performed using scheduled multiple-reaction monitoring (MRM) in the positive ion mode (Murphy et al., (2007) Anal Biochem 366:59-70). Lipid concentrations (pmol/mL) were calculated by relating the peak area of each species to the peak area of the internal standard of triheptadecanoin (Sigma Aldrich, St Louis Mo., USA) for TAGs, cholestyl ester-18:0D6 (CDN isotopes, Quebec, Canada) for cholesteryl esters, phosphatidyl choline-13:0/13:0 (Avanti Polar Lipids, Alabaster Ala., USA) for phosphatidyl cholines and phosphatidyl ethanolamine-17:0/17:0 (Avanti Polar Lipids, Alabaster Ala., USA) for ethanolamines and phosphatidyl inositols (using Multiquant 1.2 software). […]

A short description of data set [5]: Complaints reported after the study breakfasts. Format: in vivo, human. The method, then:
as §3
After the DPA meal, there were two cases of diarrhea and one case of upset stomach but no diarrhea. One case of diarrhea was reported after the EPA meal, and there were no complaints after the olive oil meal. All complaints occurred 2 to 3 hours after the breakfast.

For data set [6] the following is noted: rats, short term supplementation; cited from earlier work.
Data set [7] can be described thus: Chylomicron phospholipid fatty acids (gas chromatography of FAME). Format: in vivo, human. The following applies: at 2 h. On the procedure:
as §2
The study breakfast consisted of 180 grams of instant mashed potato (Continental Deb™, Unilever, Australasia) mixed with 70 ml boiled water and 20 grams of oil. In each of the three meals 18 grams of lipids consisted of olive oil (La Espanola Pure Olive Oil, Seville, Spain). The DPA breakfast included 2 g of DPA (Equateq Ltd, Breasclete, Callanish, Scotland), the EPA breakfast 2 g of EPA (Equateq Ltd, Breasclete, Callanish, Scotland) and the control (olive oil) meal an additional 2 g of olive oil. […]
Fatty acid methyl esters (FAME) were prepared with a sodium methoxide method. […] The FAME were analysed with gas chromatography (Shimadzu GC-2010 equipped with AOC-20i auto injector, flame ionization detector (Shimadzu corporation, Kyoto, Japan) and wall coated open tubular column DB-23 (60 m×0.25 mm i.d., liquid film 0.25 μm, Agilent technologies, J.W. Scientific, Santa Clara, Calif., USA). Splitless/split injection was used and the split was opened after 1 min. Supelco 37 Component FAME Mix (Supelco, St. Louis, Mo., USA), 68D (Nu-Check-Prep, Elysian, Minn., USA) and GLC-490 (Nu-Check-Prep, Elysian, Minn., USA) were used as external standards.

The mark [8] stands for this setting: 2 g in breakfast, 10 subjects, 2 to 3 hours after breakfast.

`CCC=CCC=CCC=CCC=CCC=CCCCCCC(=O)O` [DPA, 7, 10, 13, 16, 19 docosapentaenoic acid]: the “Difference between plasma TAG areas, compared to control meal” value in data set [1] (2 g in breakfast, p=0.078) is reported as “tended to be significant”. The “Plasma TAG concentration at individual time points, compared to control meal” value in data set [1] (one and two hours, p=0.024 and p=0.014) was “smaller”. In data set [1] (postprandial), the “Plasma triglyceride level after consumption” value is given as “remained close to fasting levels”. For the same compound, the “Incorporation of fatty acids in chylomicrons” value in data set [2] (2 g added to 18 g olive oil, within five hours) was “almost completely eliminates”. Further, the “Chylomicron TAG level after the breakfast” value in data set [2] (2 g free fatty acid in 18 g olive oil, up to 5 h postprandial, n=10) is “remained close to fasting levels; also recorded: remained at almost fasting level”. The “Incremental area under the chylomicron TAG curve, compared to olive oil meal” value in data set [2] (2 g in breakfast, p=0.021) was “significantly reduced”. Besides, in data set [2] (2 g in breakfast, p=0.034), the “Incremental area under the chylomicron TAG curve, compared to EPA meal” value is “significantly reduced”. The “Chylomicron TAG concentration at individual time points, compared to control meal” value in data set [2] (one and two hours, p=0.017 and p=0.068) is on record as “smaller”. The “DHA (22:6n-3) in chylomicron TAGs, compared to olive oil breakfast” value in data set [3] (at 2 h and 3 h) was “significantly increased”. Moreover, the “EPA (20:5n-3) proportion in chylomicron TAGs” value in data set [3] was “did not raise”. Further, the “DPA (22:5n-3) content in chylomicron TAGs” value in data set [3] (vs olive oil meal 2-5 h (3 h p=0.06), vs EPA meal 3-5 h) is listed as “significantly higher”. In addition, in data set [4], the “TAG 58:9 in chylomicrons, compared to olive oil breakfast” value was “significantly more”. In addition, in data set [5] (setting [8]), the “Cases of diarrhea after the meal” value is on record as “two” and the “Cases of upset stomach but no diarrhea after the meal” value is given as “one”. The “Subjects reporting diarrhea or upset stomach” value in data set [5] (in the three hours following the breakfast) is on record as “three out of the ten”. Moreover, in data set [6], the “Concentration of DHA in liver” value is “significantly increased”; the “Concentration of EPA in the liver, heart and skeletal muscle” value is “significantly increased”.
For the compound `CC/C=C\C/C=C\C/C=C\C/C=C\C/C=C\CCCC(=O)O` [EPA, eicosapentaenoic acid, reference compound], in data set [3] (at 5 h), the “DHA (22:6n-3) in chylomicron TAGs, compared to olive oil breakfast” value was “significantly increased”. The “EPA (20:5n-3) proportion in chylomicron TAGs” value in data set [3] is reported as “significantly higher”. Also, in data set [7], the “Amount of DPA and DHA in chylomicron phospholipids, compared to olive oil breakfast” value is “increased”; the “Proportion of EPA in chylomicron phospholipids, compared to the two other breakfasts” value was “increased”. Further, the “TAG 58:9 in chylomicrons, compared to olive oil breakfast” value in data set [4] is “significantly more”. Besides, the “Cases of diarrhea after the meal” value in data set [5] (setting [8]) is listed as “One”.
